From patent US12114655B2, “Agricultural compositions and methods of use thereof” (Valent U.S.A. LLC, priority 2019, dated 2024)

System: corn
Test: Spray chamber treatment of corn plots grown to 12 inches: efficacy of clethodim with or without mannitol or sorbitol
Format: in vivo
Details: 14 days after treatment; clethodim 55.4 g/HA, mannitol or sorbitol 6800 g/HA where present; all compositions with 1% v/v Agridex and 0.25% v/v Induce; corn 12 inches in height
Procedure: 4 trials were conducted on the efficacy of clethodim with or without mannitol or sorbitol. Specifically, 4 plots of corn were grown to 12 inches in height. These plots were placed in a spray chamber for treatment. All compositions contained 1% v/v of Agridex® and 0.25% v/v of Induce®. Treatments and results can be found in Table 1, below.

`CCSC(C)CC1CC(=O)C(/C(CC)=N/OC/C=C/Cl)=C(O)C1` (stereo not shown) [Clethodim, clethodim] was tested, and the “Days After Treatment (% control) 14” value was 20.8 % control.
